Key:
[1] = system: ApoB-100-associated lipoproteins; test: Inhibition of the release of ApoB-100-associated lipoproteins from HepG2 cells (immunoassay for human LDL); format: cell-based; conditions: light absorption 450 nm vs solvent control
Protocol: The test for detecting inhibition of the release of ApoB-100-associated lipoproteins from liver cells was carried out in vitro using cultured liver cells, preferably using cells of the human line HepG2. These cells are grown under standard conditions in medium for the culture of eucaryotic cells, preferably in RPMI 1640 using 10% foetal calf serum. HepG2 cells synthesize and secrete into the culture supernatant ApoB-100-associated lipoprotein particles which in principle are synthesized in a similar manner to the VLDL and LDL particles which are to be found in the plasma.
These particles can be detected using an immunoassay for human LDL. This immunoassay is carried out using antibodies which have been induced in the rabbit against human LDL under standard conditions. The anti-LDL antibodies (rabbit anti-LDL-Ab) were purified by affinity chromatography on an immunosorbent using human LDL. These purified rabbit anti-LDL Ab are adsorbed on the surface of plastic. Expediently, this adsorption is carried out on the plastic surface of microtitre plates having 96 wells, preferably on MaxiSorp plates. If ApoB-100-associated particles are present in the supernatant of Hep-G2 cells, these can bind to the insolubilized rabbit anti-LDL Ab, and an immune complex is formed which is bound to the plastic surface. Unbound proteins are removed by washing. The immune complex located on the plastic surface is detected using monoclonal antibodies which have been induced against human LDL according to standard conditions and purified. These antibodies were conjugated with the enzyme peroxidase. Peroxidase converts the colourless substrate TMB into a coloured product in the presence of H2 O2. After acidification of the reaction mixture using H2 SO4, the specific light absorption at 450 mn is determined, which is a measure of the amount of ApoB-100-associated particles which have been secreted into the culture supernatant by the HepG2 cells.
The IC50 value indicates at which substance concentration the light absorption is inhibited by 50% in comparison with the control (solvent control without substance).

[2] = system: intestinal triglyceride absorption; test: Inhibition of intestinal triglyceride absorption in vivo (rats); design: species or system male Wistar rats; conditions: po; for Absorption ED50 or % inhibition: 2 h; for ED50: Rattus norvegicus, serum triglyceride increase 2 h after triglyceride loading, fasting rats, read-out: Absorption ED50 or % inhibition
Protocol: The substances which are to be investigated for their triglyceride absorption-inhibiting action in vivo are administered orally to male Wistar rats having a body weight of between 170 and 230 g. For this purpose, the animals are divided into groups of 6 animals 18 hours before administration of the substance and the feed is then withdrawn from them. Drinking water is available to the animals ad libitum. The animals of the control groups receive an aqueous tragacanth suspension or a tragacanth suspension which contains olive oil. The tragacanth-olive oil suspension is prepared using an Ultra-Turrax. The substances to be investigated are suspended directly before substance administration in a corresponding tragacanth-olive oil suspension, also using an Ultra-Turrax.
Before stomach tube application, blood is taken from each rat by puncture of the retroorbital venous plexus to determine the basal serum triglyceride content. The tragacanth suspension, the tragacanth-olive oil suspensions without substance (control animals) and the substances suspended in a corresponding tragacanth-olive oil suspension are then administered to the fasting animals using a stomach tube. Further taking of blood for the determination of the postprandial serum triglyceride rise is carried out, as a rule, 1,2 and 3 hours after stomach tube application.
The blood samples are centrifuged and, after recovering the serum, the triglycerides are determined photometrically using an EPOS analyzer 5060 (Eppendorf Geratebau, Netheler & Hinz GmbH, Hamburg). The triglycerides are determined by fully enzymatic means using a commercially available UV test.
The postprandial serum triglyceride increase is determined by subtraction of the triglyceride preliminary value of each animal from its corresponding postprandial triglyceride concentrations (1,2 and 3 hours after administration).
The differences (in mmol/l) at each time 1, 2 and 3 hours) are averaged in the groups, and the average values of the serum triglyceride increase (ΔTG) of the substance-treated animals are compared with the animals which only received the tragacanth-oil suspension.
Likewise, the serum triglyceride course of the control animals which received only tragacanth is calculated. The substance effect at each time (1, 2 or 3 hours) is determined as follows and given in Δ% of the oil-loaded control. [formula]
Effect of 10 mg of test substance/kg of body weight p.o. on the triglyceride increase (Δ%) 2 h after a triglyceride loading in the serum of fasting rats. The serum triglyceride increase of fat-loaded control animals based on the serum triglyceride level of tragacanth control animals corresponds to 100%. n=6 animals per group.
Statistical assessment was carried out using student3 s t test after prior checking of the variances for homogeneity.

VLDL secretion [3] = test: Inhibition of VLDL secretion in vivo (rat) (Triton rat); conditions: Rattus norvegicus, po, 2 h; for inhibition in vivo at 3 mg/kg: 3 mg/kg p.o., (n.s.) for 112, 114, 117, 154, 175, 176, 227, read-out: Triton rat % TG inhibition (p.o.) 2 h after substance
Protocol: The action of the test substances on VLDL secretion is also investigated in the rat. To do this, 500 mg/kg of body weight (2.5 ml/kg) of Triton WR-1339, dissolved in physiological saline solution, are administered to rats intravenously in the tail vein. Triton WR-1339 inhibits lipoprotein lipase and thus leads through inhibition of VLDL catabolism to an increase in the triglyceride and cholesterol level. These increases can be used as a measure of the VLDL secretion rate.
Blood is taken from the animals before and one and two hours after administration of the detergent by puncture of the retroorbital venous plexus. The blood is incubated at room temperature for 1 h for clotting and the serum is recovered by centrifugation at 10,000 g for 20 s. The triglycerides are then determined photometrically at a wavelength of 540 nm by means of a commercially available coupled enzyme test (Sigma Diagnostics®, No. 339). Measurement is carried out with the aid of a likewise coupled enzyme test (Boehringer Mannheim®, No. 1442350) at a wavelength of 546 nm. Samples with triglyceride or cholesterol concentrations which exceed the measuring range of the methods are diluted with physiological saline solution. The respective serum concentrations are determined with the aid of standard series measured in parallel. Test substances are administered orally, intravenously or subcutaneously immediately after the Triton injection.

VLDL secretion [4] = test: Determination of VLDL secretion in vivo in the hamster (Triton hamster); design: species or system golden hamster; conditions: 6 mg/kg i.v.
Protocol: The effects of the test substances on VLDL secretion in vivo is investigated in the hamster. To do this, golden hamsters are anaesthetized with Ketavet (83 mg/kg s.c.) and Nembutal (50 mg/kg i.p.) after premedication with atropine ([…] s.c.). When the animals have become reflex-free, the jugular vein is exposed and cannulated. 0.25 ml/kg of a 20% strength solution of Triton WR 1339 in physiological saline solution is then administered. This detergent inhibits the lipoprotein lipase and thus leads to an increase in the triglyceride level as a result of lack of catabolism of secreted VLDL particles. This triglyceride increase can be used as a measure of the VLDL secretion rate. Blood is taken from the animals before and one and two hours after administration of the detergent by puncture of the retroorbital venous plexus. The blood is incubated for two hours at room temperature, then overnight at 4° C. in order to finish clotting completely. […] The triglyceride concentration in the serum thus obtained is determined with the aid of a modified commercially available enzyme test (Merckotest® triglyceride No. 14354). […] The optical density is then determined at a wavelength of 492 nm in an automatic plate-reading apparatus (SLT spectra). […] The triglyceride concentration contained in the samples is determined with the aid of a standard curve measured in parallel. […]

[5] = Homo sapiens, HepG2, HepG2 cells

| IC50 [1, 5] [nM] | IC50 ([1]; HepG2 cells) [nM] | Structure (SMILES) | Absorption ED50 or % inhibition [2] [mg/kg] | inhibition in vivo at 3 mg/kg (VLDL secretion [3]) [%] | inhibition in vivo at 5 mg/kg (VLDL secretion [3]; 5 mg/kg p.o., read-out: Triton rat % TG inhibition (p.o.) 2 h after substance) [%] | inhibition in vivo at 10 mg/kg (VLDL secretion [3]; 10 mg/kg p.o., read-out: Triton rat % TG inhibition (p.o.) 2 h after substance) [%] | ED50 [2] [mg/kg] | Triton hamster % CH inhibition 2 h after substance (VLDL secretion [4]; cholesterol) [%] | Triton hamster % TG inhibition 2 h after substance (VLDL secretion [4]; triglycerides) [%] |
| --- | --- | --- | --- | --- | --- | --- | --- | --- | --- |
| 40 |  | Cn1c(=O)c2c(nc(CCc3ccccc3)n2Cc2ccc(C(C(=O)N[C@@H](CO)c3ccccc3)C3CCCC3)cc2)n(C)c1=O (stereo partly drawn) [Example 227, 2-(R&S)-Cyclopentyl-2-[4-(1,3-dimethyl-2,6-dioxo-8-(2-phenyl-ethyl)-1,2,3,6-tetra-hydro-purin-7-yl-methyl)phenyl]acet-N-[1-(R)-1-phenyl-2-hydroxy-ethyl)amide] | > 6 | -8 |  |  |  |  |  |
|  | 23 | Cc1ccc(-c2nc3c(c(=O)n(C)c(=O)n3C)n2Cc2ccc(C(C(=O)N[C@@H](CO)c3ccccc3)C3CCCC3)cc2)cc1 (single isomer, unassigned) [Example 136] | 2 | 28 |  |  |  |  |  |
|  | 3 | Cn1c(=O)c2c(nc(Cc3ccccc3)n2Cc2ccc(C(C(=O)N[C@@H](CO)c3ccccc3)C3CCCC3)cc2)n(C)c1=O (single isomer, unassigned) [Example 169] | 2 | 28 | 41 | 59.4 |  |  |  |
| 8 |  | Cn1c(=O)c2c(nc(-c3cccs3)n2Cc2ccc(C(C(=O)N[C@@H](CO)c3ccccc3)C3CCCC3)cc2)n(C)c1=O (stereo partly drawn) [Example 157] | > 2 | 11.3 |  |  |  |  |  |
| 4 |  | Cc1ccc(-c2nc3c(c(=O)n(C)c(=O)n3C)n2Cc2ccc(C(C(=O)N[C@@H](CO)c3ccccc3)C3CCCC3)cc2)cc1 (stereo partly drawn) [Example 112] |  | 17 |  |  | 3 |  |  |
| 3 |  | Cn1c(=O)c2c(nc(-c3ccsc3)n2Cc2ccc(C(C(=O)N[C@@H](CO)c3ccccc3)C3CCCC3)cc2)n(C)c1=O (stereo partly drawn) [Example 154] | < 2 | -4 |  |  |  |  |  |
| 34 |  | Cn1c(=O)c2c(nc(-c3ccccc3)n2Cc2ccc(C(C(=O)N[C@@H](CO)c3ccccc3)C3CCCC3)cc2)n(C)c1=O (stereo partly drawn) [Example 129] |  |  |  |  | 20 | 25 | 25 |

Source: patent US5714494A, “Xanthines in the 7th position with a benzyl acetic acid moiety” (Bayer Aktiengesellschaft, priority 1995, dated 1998)
